# What was measured:
# [1] = target: T1, Serine/threonine-protein kinase tousled-like 1 (Homo sapiens) (UniProt Q9UKI8); settings: at 10 µM
# T1 sequence (whole entry): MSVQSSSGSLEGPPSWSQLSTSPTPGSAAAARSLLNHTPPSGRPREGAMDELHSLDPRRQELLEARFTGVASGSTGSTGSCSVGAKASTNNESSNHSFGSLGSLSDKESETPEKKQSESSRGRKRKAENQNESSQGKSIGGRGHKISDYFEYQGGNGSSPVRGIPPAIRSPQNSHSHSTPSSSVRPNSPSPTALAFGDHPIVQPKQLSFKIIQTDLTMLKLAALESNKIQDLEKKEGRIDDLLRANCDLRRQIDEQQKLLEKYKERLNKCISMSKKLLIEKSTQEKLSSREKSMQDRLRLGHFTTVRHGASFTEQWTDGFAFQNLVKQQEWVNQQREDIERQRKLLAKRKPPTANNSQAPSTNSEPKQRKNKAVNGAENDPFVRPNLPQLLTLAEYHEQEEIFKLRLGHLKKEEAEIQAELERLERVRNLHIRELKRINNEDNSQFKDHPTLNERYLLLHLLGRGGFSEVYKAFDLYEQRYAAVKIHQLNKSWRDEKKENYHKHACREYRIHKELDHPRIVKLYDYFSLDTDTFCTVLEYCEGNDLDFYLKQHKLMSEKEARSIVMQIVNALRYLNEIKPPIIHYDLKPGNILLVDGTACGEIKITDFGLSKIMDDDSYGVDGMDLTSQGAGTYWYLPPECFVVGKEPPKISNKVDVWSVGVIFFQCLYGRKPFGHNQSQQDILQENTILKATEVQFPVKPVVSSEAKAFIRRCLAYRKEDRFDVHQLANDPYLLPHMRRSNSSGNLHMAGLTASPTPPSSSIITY
# [2] = target: Ribosomal protein S6 kinase alpha-2 (Homo sapiens) (UniProt Q15349); assay: Selectivity interaction (KinomeScan (DiscoverX)) EUB0000655a RPS6KA2; settings: at 10 µM
# Ribosomal protein S6 kinase alpha-2 (Homo sapiens), sequence (Q15349 whole entry): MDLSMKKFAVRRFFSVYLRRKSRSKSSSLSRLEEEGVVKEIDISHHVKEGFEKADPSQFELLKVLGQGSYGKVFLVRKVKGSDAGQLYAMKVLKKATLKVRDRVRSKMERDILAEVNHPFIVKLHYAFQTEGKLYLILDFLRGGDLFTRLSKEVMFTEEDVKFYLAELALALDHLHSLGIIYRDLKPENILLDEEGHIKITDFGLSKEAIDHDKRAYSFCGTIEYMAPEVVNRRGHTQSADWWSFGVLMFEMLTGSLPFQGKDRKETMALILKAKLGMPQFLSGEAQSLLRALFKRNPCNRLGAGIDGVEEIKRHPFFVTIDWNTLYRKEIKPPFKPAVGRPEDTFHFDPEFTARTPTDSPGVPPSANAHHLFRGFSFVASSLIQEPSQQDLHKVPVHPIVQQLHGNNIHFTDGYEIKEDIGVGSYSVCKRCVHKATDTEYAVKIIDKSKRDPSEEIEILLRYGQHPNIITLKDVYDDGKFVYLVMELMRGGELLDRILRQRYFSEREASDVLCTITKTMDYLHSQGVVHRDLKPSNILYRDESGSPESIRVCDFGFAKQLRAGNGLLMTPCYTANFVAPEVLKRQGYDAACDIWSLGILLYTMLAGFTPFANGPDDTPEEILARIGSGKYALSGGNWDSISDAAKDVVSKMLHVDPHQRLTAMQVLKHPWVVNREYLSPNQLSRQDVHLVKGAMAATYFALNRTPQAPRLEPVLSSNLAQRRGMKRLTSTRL
# [3] = target: T2, Tyrosine-protein kinase Mer (Homo sapiens) (UniProt Q12866); assay: Selectivity interaction (Kinase panel (Invitrogen)) EUB0000639a MERTK; settings: at 200 nM
# T2 sequence (whole entry): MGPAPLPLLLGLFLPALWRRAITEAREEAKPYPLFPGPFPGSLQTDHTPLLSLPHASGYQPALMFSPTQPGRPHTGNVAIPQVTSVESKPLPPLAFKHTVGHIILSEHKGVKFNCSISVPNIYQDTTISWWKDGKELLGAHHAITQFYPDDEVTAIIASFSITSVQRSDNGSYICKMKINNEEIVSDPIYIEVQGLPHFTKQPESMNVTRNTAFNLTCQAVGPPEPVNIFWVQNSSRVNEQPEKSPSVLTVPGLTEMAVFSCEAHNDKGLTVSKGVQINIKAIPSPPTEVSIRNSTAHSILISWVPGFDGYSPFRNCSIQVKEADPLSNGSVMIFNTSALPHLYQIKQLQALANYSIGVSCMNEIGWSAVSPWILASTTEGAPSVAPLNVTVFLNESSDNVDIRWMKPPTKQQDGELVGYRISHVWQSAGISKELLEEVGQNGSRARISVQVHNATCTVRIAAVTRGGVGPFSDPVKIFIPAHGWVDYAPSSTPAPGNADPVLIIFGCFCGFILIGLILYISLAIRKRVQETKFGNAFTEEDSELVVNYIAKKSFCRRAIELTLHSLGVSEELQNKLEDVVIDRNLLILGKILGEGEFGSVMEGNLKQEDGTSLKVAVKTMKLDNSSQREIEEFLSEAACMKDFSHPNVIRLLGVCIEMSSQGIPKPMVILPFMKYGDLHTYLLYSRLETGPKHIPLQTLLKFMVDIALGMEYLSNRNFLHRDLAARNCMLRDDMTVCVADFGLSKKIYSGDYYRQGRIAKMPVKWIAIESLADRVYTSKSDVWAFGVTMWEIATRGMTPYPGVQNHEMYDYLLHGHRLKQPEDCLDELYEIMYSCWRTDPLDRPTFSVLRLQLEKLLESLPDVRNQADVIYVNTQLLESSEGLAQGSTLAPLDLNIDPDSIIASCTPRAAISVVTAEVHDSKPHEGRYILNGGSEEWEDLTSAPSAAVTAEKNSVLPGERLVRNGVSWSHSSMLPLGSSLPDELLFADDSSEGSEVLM
# [4] = target: NT-3 growth factor receptor (Homo sapiens, UniProt Q16288); assay: Selectivity interaction (KinomeScan (DiscoverX)) EUB0000229b NTRK3; settings: at 10 µM
# NT-3 growth factor receptor, sequence (Q16288 32-839 limits assumed): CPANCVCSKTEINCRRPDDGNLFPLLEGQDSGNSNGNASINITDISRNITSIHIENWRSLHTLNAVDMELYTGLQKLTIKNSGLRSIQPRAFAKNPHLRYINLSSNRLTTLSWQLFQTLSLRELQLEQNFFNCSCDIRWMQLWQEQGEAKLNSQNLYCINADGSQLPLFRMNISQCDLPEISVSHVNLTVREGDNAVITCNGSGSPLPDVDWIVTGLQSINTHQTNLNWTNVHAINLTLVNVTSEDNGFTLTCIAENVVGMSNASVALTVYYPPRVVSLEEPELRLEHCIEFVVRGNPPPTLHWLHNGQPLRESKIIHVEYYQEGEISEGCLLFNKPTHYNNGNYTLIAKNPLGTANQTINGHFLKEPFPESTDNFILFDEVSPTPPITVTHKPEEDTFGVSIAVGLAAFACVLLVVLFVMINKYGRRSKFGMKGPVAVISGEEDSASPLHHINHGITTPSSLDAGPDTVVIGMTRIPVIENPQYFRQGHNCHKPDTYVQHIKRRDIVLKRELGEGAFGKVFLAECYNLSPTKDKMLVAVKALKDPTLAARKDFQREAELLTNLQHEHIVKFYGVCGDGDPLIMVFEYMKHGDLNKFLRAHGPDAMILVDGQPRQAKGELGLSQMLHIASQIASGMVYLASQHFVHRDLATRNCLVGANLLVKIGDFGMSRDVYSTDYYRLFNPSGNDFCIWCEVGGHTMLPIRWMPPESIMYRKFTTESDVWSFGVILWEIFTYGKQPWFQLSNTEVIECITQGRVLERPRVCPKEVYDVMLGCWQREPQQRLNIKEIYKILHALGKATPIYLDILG
# [5] = target: Serine/threonine-protein kinase PLK2 (Homo sapiens, UniProt Q9NYY3); assay: Selectivity interaction (Kinase panel (Z-LYTE Assay)) EUB0001632a PLK2; settings: at 10 µM
# Serine/threonine-protein kinase PLK2, sequence (Q9NYY3 whole entry, looked up): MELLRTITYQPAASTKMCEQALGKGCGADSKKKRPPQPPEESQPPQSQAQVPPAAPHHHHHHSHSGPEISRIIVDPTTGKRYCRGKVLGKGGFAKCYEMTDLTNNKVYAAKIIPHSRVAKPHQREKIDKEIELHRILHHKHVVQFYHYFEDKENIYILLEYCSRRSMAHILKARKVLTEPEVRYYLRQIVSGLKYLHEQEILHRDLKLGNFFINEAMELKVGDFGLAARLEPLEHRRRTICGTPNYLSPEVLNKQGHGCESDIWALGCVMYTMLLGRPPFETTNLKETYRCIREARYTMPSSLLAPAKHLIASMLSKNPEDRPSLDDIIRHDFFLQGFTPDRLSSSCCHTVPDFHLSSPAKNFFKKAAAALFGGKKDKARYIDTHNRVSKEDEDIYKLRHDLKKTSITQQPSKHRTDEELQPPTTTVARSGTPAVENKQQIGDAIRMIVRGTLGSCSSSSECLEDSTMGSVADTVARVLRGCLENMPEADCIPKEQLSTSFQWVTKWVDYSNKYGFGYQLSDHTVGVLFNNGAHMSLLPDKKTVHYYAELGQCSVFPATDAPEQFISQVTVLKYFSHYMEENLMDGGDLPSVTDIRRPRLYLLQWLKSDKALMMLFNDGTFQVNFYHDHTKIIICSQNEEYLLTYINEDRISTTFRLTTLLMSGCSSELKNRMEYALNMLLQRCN
# [6] = target: T3, Inhibitor of nuclear factor kappa-B kinase subunit epsilon (Homo sapiens) (UniProt Q14164); assay: Selectivity interaction (KinomeScan (DiscoverX)) EUB0000695a IKBKE; settings: at 100 nM
# T3 sequence (whole entry): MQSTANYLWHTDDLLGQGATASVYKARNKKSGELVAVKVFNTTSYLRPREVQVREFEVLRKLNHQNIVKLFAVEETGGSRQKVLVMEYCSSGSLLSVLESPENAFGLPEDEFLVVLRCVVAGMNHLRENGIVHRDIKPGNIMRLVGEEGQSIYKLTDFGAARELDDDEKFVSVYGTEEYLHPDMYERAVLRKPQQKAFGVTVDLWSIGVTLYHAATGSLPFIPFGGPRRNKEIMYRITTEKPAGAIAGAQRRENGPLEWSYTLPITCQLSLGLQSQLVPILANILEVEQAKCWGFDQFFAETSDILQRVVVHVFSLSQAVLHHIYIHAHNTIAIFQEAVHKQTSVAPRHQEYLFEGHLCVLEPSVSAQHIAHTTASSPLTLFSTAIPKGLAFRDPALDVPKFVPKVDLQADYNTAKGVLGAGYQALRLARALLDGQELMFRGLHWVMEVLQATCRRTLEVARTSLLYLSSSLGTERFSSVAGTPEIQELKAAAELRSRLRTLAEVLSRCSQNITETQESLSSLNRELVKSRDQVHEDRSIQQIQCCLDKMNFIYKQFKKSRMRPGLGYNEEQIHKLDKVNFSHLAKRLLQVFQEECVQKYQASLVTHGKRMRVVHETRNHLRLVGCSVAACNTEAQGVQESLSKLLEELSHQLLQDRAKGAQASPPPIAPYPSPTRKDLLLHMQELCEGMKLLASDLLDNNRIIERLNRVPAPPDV
# [7] = target: T1, Serine/threonine-protein kinase tousled-like 1 (Homo sapiens); assay: Selectivity interaction (KinomeScan (DiscoverX)) EUB0000695a TLK1; settings: at 100 nM
smiles,measurement,setting,value
CCN(CC)CCCCNc1ncc2cc(-c3cc(OC)cc(OC)c3)c(NC(=O)NC(C)(C)C)nc2n1,% of control,[1],100%
CN(C)CCOc1ccc(-c2nc(-c3ccncc3)c(-c3ccc4c(c3)CC/C4=N\O)[nH]2)cc1,% of control,[2],100%
CC[C@@H]1[C@H](F)C(=O)N[C@@H]1COc1nccc2cc(C(N)=O)c(OC)cc12 [ZIMLOVISERTIB],% of inhibition,[3],3.13%
COc1cc(N(C)c2ccnc3ccc(C(F)(F)F)cc23)cc(OC)c1OC,% binding,[4],100%
Cn1cc(-n2cnc3c(NCc4nc5cc(Cl)c(Cl)cc5[nH]4)nc(N4CCOCC4)nc32)cn1,% of control,[5],-0.658%
Cc1cc(F)c(C(=O)Nc2cccc(-c3nncn3C(C)C)n2)cc1-n1cnc(C2CC2)c1,% of control,[6],100%
same,% of control,[7],88%

# Reference: ChEMBL document CHEMBL5465560, “Selectivity Literature for EUbOPEN Chemogenomic Library” (2024)
